How the values were obtained:
Format in all cases: cell-based, human
[1] = system: DLD1 MSH6-deficient cells; assay: Short-term cell viability assay with or without O^6BG; settings: DLD1 (MGMT+, MSH6−), with or without 10 μM O^6BG-induced MGMT depletion
From the text: (§1) FIGS. Z2A-Z2H. […] (FIG. Z2A) IC50 values derived from short-term viability assays in LN229 MGMT+/−, MMR+/− cells treated with TMZ (1a) derivatives. ^aMGMT TI (therapeutic index)=IC50 (MGMT+/MMR+) divided by IC50 (MGMT−/MMR+). ^bMMR RI (resistance index)=IC50 (MGMT−/MMR−) divided by IC50 (MGMT−/MMR+). (FIG. Z2B) Short-term viability assay curves for TMZ (1a), CCNU (14), KL-85 (4b), and KL-50 (4a) in LN229 MGMT+/−, MMR+/− cells. (FIG. Z2C) Clonogenic survival curves for TMZ (1a) in LN229 MGMT+/−, MMR+/− cells, with representative images of wells containing 1000 plated cells treated with 30 μM TMZ (1a). (FIG. Z2D) Clonogenic survival curves for KL-50 (4a) in LN229 MGMT+/−, MMR+/− cells, with representative images of wells containing 1000 plated cells treated with 30 μM KL-50 (4a). (FIG. Z2E) Short-term viability assay curves for TMZ (1a) in DLD1 MSH6-deficient cells pre-treated with 0.01% DMSO control (CTR) or 10 μM O^6BG (+O^6BG) for 1 h prior to TMZ (1a) addition to deplete MGMT. (FIG. Z2F) Short-term viability assay curves for KL-50 (4a) in DLD1 MSH6-deficient cells pre-treated with 0.01% DMSO control (CTR) or 10 μM O^6BG (+O^6BG) for 1 h prior to KL-50 (4a) addition. (FIG. Z2G) Short-term viability assay curves for TMZ (1a) in HCT116 MLH1−/− cells or HCT116 cells complemented with chromosome 3 carrying wildtype MLH1 (+Chr3) pre-treated with 0.01% DMSO control or 10 μM O^6BG (+O^6BG) for 1 h prior to TMZ (1a) addition. (FIG. Z2H) Short-term viability assay curves for KL-50 (4a) in HCT116 MLH1−/− cells or HCT116 cells complemented with chromosome 3 carrying wildtype MLH1 (+Chr3) pre-treated with 0.01% DMSO control or 10 μM O^6BG (+O^6BG) for 1 h prior to KL-50 (4a) addition. For (FIG. Z2B), (FIG. Z2C), (FIG. Z2D), (FIG. Z2E), (FIG. Z2F), (FIG. Z2G), and (FIG. Z2H), points, mean; error bars, SD; n≥3 technical replicates.
(§2) Short-term Cell Viability Assay. Cells were seeded in 96-well plates at 1000 or 2000 cells/well and allowed to adhere at 23° C. for 60 min and then incubated overnight at 37° C. Cells were treated with indicated concentrations of compounds in triplicate for 4-6 days prior to fixation with 3.7% paraformaldehyde and nuclear staining with 1 μg/mL Hoechst 33342 dye. Cells were imaged on a Cytation 3 imaging reader (BioTek) and quantified using CellProfiler software.

[2] = system: HCT116 MLH1−/− cells and HCT116+Chr3 cells; assay: as above; settings: for cytotoxicity in HCT116 MLH1−/− cells (in words): MLH1-deficient, with or without 10 μM O^6BG; for cytotoxicity in HCT116+Chr3 cells (in words): complemented with chromosome 3 containing MLH1, with or without 10 μM O^6BG
From the text: as §1, §2

[3] = system: CHK1 and CHK2 phosphorylation in LN229 MGMT+/−, MMR+/− cells; assay: Western blotting of checkpoint kinase phosphorylation; settings: 20 μM, 24 or 48 h
Protocol: Western Blotting. For phospho-protein analysis experiments, cells were lysed in 1× RIPA buffer (Cell Signaling Technology, #9806) supplemented with 1× Protease Inhibitor Cocktail (Roche) and 1× PhosSTOP Phosphatase Inhibitor Cocktail (Sigma). For all other western blot analyses, cells were lysed in lysis buffer (50 mM HEPES, 250 mM NaCl, 5 mM EDTA, 1% NP-40) supplemented with 1× Protease Inhibitor Cocktail (Roche). The de-ubiquitination inhibitor N-ethylmaleimide (NEM, 4 mM) was added in FANCD2 ubiquitination analysis experiments. Proteins were separated using NuPAGE 4-12% Bis-Tris or 3-8% Tris-Acetate Gels (Invitrogen) and transferred to Immobilon-P PVDF membrane (Millipore) for western blotting. Membranes were blocked with 5% milk in TBS-T for 1 h prior to primary antibody addition overnight at 4° C. […] Where shown, bands were quantified using ImageJ software.

Compound	cytotoxicity in DLD1 cells (in words) [1]	cytotoxicity in HCT116 MLH1−/− cells (in words) [2]	cytotoxicity in HCT116+Chr3 cells (in words) [2]	CHK1 and CHK2 phosphorylation (in words) [3]
Cn1nnc2c(C(N)=O)ncn2c1=O [TMZ, temozolomide, reference compound]	inactive	inactive	enhanced sensitivity to TMZ (1a), which was further potentiated by MGMT depletion	only induced phospho-CHK1 and —CHK2 in MGMT−/MMR+ cells
NC(=O)c1ncn2c(=O)n(CCF)nnc12 [KL-50, 3-(2-fluoroethyl)-4-oxo-3H,4H-imidazo[4,3-d][1,2,3,5]tetrazine-8-carboxamide]	toxic to these cells, but only after O^6BG-induced MGMT depletion	selective tumor cell killing specifically in the setting of O^6BG-induced MGMT suppression	selective tumor cell killing specifically in the setting of O^6BG-induced MGMT suppression	induced CHK1 and CHK2 phosphorylation in MGMT− cells regardless of MMR status

Reference: patent publication US20240400572A1, “COMPOUNDS AND METHODS FOR TREATING CANCERS THAT ARE MGMT DEFICIENT REGARDLESS OF MMR STATUS” (Yale University, priority 2021, published 2024)
